Measurements: patent US20070048215A1, “Chemical compound and assay” (priority 2003, published 2007)

Assays:
[1] = target: T1, membranes from hERG-transfected HEK cells (hERG channel) (Homo sapiens, UniProt Q12809); test: Binding of the radioligand to membranes from hERG-transfected HEK cells (Kd, Bmax); conditions: mean±SEM, n=3
T1 construct: expressed in transfected cells; host or cells: HEK (human embryonic kidney) cells, membrane preparation
Protocol: The batch of radiolabel used in these studies has a specific activity of 2941.5 GBq/mmol (79.5 Ci/mmol) and a concentration of 20 μM. The stock radiolabel is diluted 2000-fold to 10 nM and 20 μL added per well to a final assay volume of 200 μL to give a final radioligand concentration of 1 nM.

[2] = target: T2, hERG-transfected HEK membranes (hERG channel) (Homo sapiens, UniProt Q12809); test: biochemical
Protocol: Protocol for HERG Binding Assay
(§1) 96-well polypropylene plates (Costar C3600)
GF/B Plate Coating Solution
0.3% (v/v) Polyethylenimine
(§2) GF/B filter plates are pre-soaked in coating solution for a minimum of 20 minutes before harvesting.
(§3) Membranes for use in the assay are prepared as follows:
(§4) The final pellet is prepared in serum-free medium and the packed cell volume (pcv) measured.
(§5) The cells are allowed to swell for a couple of minutes on ice then lysed using a Polytron tissue homogeniser set to 22,000 rpm. The cell suspension is held on ice and the Polytron is allowed to build up to speed, then turned off and allowed to cool for 30 seconds before repeating. Normally 3 bursts should be sufficient to completely lyse the cells. A sample is checked microscopically to ensure complete lysis and the process repeated if necessary.
(§6) The lysed membrane solution is carefully overlaid over the 41% cushion. Any debris that may be stuck to the sides is washed out of the Polytron tube with buffer. The ultra centrifuge tube is topped up with cold buffer to completely fill the tube (this prevents the tube from collapsing during centrifugation). Centrifugation is carried out at 28,000 rpm for 1 hour @ 4° C. using a SW-28 swing-out rotor with a brake to 800 rpm.
(§7) Membranes are seen as a white band at sucrose/buffer interphase. The top layer of the buffer is discarded and then all the membrane band is harvested with as little sucrose as possible and added to a fresh centrifuge tube. This is diluted and mixed well with at least 3 volumes of ice cold buffer containing protease inhibitor. Centrifugation is carried out at 23,000 rpm at 4° C. for 20 minutes with a break to zero.
(§8) The supernatant is discarded and the pellet resuspended in the assay buffer+protease inhibitors on ice at 1×10^8 cell equivalents/ml. This preparation is then aliquotted and frozen to −80° C. or lower. […]
(§9) 20 μL of 10 nM 3,7-Bis[2-(4-nitro[3,5-^3H]phenyl)ethyl]-3,7-diazabicyclo[3.3.1]nonane is added to a dry filter plate to determine the total radioactivity added to assay wells.

[3] = target: T2, hERG-transfected HEK membranes (hERG channel)
Protocol: Protocol for HERG Binding Assay
as §1
GF/B Plate Coating Solution
0.3% (v/v) Polyethylenimine
as §2, §3, §4, §5, §6, §7, §8, §9

[4] = tested on: cardiac rapidly activating delayed rectifier K^+ current; conditions: source of data: Chadwick 1993; G.Pig; cited from earlier work
[5] = target: T2, hERG-transfected HEK membranes (hERG channel); conditions: published data of Finlayson et al.; cited from earlier work

T2 sequence (Q12809 whole entry): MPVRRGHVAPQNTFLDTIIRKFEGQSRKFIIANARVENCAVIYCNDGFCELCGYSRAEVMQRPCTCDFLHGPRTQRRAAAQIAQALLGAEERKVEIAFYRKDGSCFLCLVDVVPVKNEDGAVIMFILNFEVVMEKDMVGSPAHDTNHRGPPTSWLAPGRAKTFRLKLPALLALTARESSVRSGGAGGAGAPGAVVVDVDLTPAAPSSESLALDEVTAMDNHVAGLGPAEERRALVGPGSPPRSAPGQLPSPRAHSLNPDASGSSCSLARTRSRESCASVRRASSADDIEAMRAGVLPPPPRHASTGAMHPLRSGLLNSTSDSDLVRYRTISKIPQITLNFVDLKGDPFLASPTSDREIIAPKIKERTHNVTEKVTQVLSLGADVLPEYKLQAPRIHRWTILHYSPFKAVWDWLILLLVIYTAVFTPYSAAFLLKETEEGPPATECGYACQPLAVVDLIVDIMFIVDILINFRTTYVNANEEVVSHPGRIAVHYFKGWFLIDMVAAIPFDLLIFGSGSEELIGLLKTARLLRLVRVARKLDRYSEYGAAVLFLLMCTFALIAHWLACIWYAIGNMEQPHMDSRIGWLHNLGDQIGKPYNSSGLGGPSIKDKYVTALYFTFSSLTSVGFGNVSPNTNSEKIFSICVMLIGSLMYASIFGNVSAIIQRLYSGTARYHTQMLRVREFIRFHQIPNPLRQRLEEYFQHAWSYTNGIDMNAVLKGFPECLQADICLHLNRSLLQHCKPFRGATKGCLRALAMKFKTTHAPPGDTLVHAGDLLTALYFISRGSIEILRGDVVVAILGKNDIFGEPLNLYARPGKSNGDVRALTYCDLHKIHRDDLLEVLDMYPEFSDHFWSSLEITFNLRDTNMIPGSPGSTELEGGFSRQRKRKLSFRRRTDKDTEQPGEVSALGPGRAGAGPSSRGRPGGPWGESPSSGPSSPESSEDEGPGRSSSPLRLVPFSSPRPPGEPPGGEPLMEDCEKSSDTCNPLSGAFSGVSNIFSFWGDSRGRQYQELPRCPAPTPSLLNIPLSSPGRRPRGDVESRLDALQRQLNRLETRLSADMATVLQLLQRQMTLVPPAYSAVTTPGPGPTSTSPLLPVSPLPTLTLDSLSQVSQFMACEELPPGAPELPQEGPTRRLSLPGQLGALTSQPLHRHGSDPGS
T1 sequence (Q12809 whole entry): as above

For `O=[N+]([O-])c1ccc(CCN2CC3CC(C2)CN(CCc2ccc([N+](=O)[O-])cc2)C3)cc1` [3,7-Bis[2-(4-nitro[3,5-^3H]phenyl)ethyl]-3,7-diazabicyclo[3.3.1]nonane], which Kd [1] is on record?
Its Kd is 0.91 ± 0.01 nM.

Which Bmax [1] does the source give for `[3H]c1cc(CCN2CC3CC(C2)CN(CCc2cc([3H])c([N+](=O)[O-])c([3H])c2)C3)cc([3H])c1[N+](=O)[O-]` [3,7-Bis[2-(4-nitro[3,5-^3H]phenyl)ethyl]-3,7-diazabicyclo[3.3.1]nonane] here?
Its Bmax is 23.1±0.4 pmol/mg protein.

Which IC50 [2] does the source give for `O=[N+]([O-])c1ccc(CCN2CC3CC(C2)CN(CCc2ccc([N+](=O)[O-])cc2)C3)cc1` [3,7-Bis[2-(4-nitrophenyl)ethyl]-3,7-diazabicyclo[3.3.1]nonane] here?
The IC50 was 3.16 nM.

Which “pIC50, 3,7-Bis[2-(4-nitro[3,5-^3H]phenyl)ethyl]-3,7-diazabicyclo[3.3.1]nonane competition binding” value [3] does the source give for `CC(C)NC[C@@H](O)c1ccc(NS(C)(=O)=O)cc1` [d-Sotalol] here?
The value was 4.6.

And the “Electrophysiology pIC50” value [4]?
The value was 4.1.

And the “pIC50, [^3H]-Dofetlide competition binding” value [5]?
The value was 3.9.
